PubChem BioAssay AID328 (DTP/NCI, 2004)
“And” between values parts separate entries of the source, which are not always exact repeats. Identical values can stand only once. Inconclusive results and toxic doses are left out. Rule for the calls: active = survival T/C of 150% or more; inactive = T/C below 125% in these data.

Tested on: BDF1 mice, P388 leukemia ip, median survival T/C
Assay: NCI In Vivo Anticancer Drug Screen. Data for tumor model P388 Leukemia (intraperitoneal) in B6D2F1 (BDF1) mice
Details: endpoint: median survival time, higher = longer survival
In short: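 Read-out is survival of treated animals expressed relative to the vehicle group, as a T/C ratio.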

[1] = dose: 100.0 mg/kg/injection, schedule: Q04DX003 (ip), vehicle: saline with Tween-80
[2] = dose: 200.0 mg/kg/injection, schedule: Q04DX003 (ip), vehicle: saline with Tween-80
[3] = dose: 400.0 mg/kg/injection, schedule: Q04DX003 (ip), vehicle: saline with Tween-80
[4] = dose: 100.0 mg/kg/injection, schedule: Q01DX009 (ip), vehicle: saline with Tween-80
[5] = dose: 200.0 mg/kg/injection, schedule: Q01DX009 (ip), vehicle: saline with Tween-80
[6] = dose: 400.0 mg/kg/injection, schedule: Q01DX009 (ip), vehicle: saline with Tween-80
[7] = dose: 50.0 mg/kg/injection, schedule: Q01DX009 (ip), vehicle: saline with Tween-80
[8] = dose: 25.0 mg/kg/injection, schedule: Q04DX003 (ip), vehicle: saline with Tween-80
[9] = dose: 50.0 mg/kg/injection, schedule: Q04DX003 (ip), vehicle: saline with Tween-80
[10] = dose: 50.0 mg/kg/injection, schedule: Q01DX009 (ip), vehicle: Klucel (hydroxypropylcellulose) (HPC)
[11] = dose: 25.0 mg/kg/injection, schedule: Q01DX009 (ip), vehicle: saline with Tween-80

Measured: T/C

CC1(C)O[C@@H]2C[C@H]3[C@@H]4CCC5=CC(=O)CC[C@]5(C)[C@@]4(F)[C@@H](O)C[C@]3(C)[C@]2(C(=O)CO)O1
inactive: [1] 108 % of control | [2] 108 % of control | [3] 100 % of control

COC(/C=C\C(OC)OC)OC
inactive: dose: 4.1 mg/kg/injection, schedule: Q01DX009 (ip), vehicle: saline 109 % of control | dose: 4.17 mg/kg/injection, schedule: Q01DX009 (ip), vehicle: saline 100 % of control | dose: 6.25 mg/kg/injection, schedule: Q01DX009 (ip), vehicle: saline 100 % of control and 122 % of control | dose: 9.3 mg/kg/injection, schedule: Q01DX009 (ip), vehicle: saline 122 % of control | dose: 9.37 mg/kg/injection, schedule: Q01DX009 (ip), vehicle: saline 95 % of control | dose: 12.5 mg/kg/injection, schedule: Q01DX009 (ip), vehicle: saline 112 % of control | dose: 18.75 mg/kg/injection, schedule: Q04DX003 (ip), vehicle: saline 110 % of control | dose: 25.0 mg/kg/injection, schedule: Q01DX009 (ip), vehicle: saline 112 % of control | dose: 37.5 mg/kg/injection, schedule: Q04DX003 (ip), vehicle: saline 105 % of control

C1=C(c2ccccc2)[P+](c2ccccc2)(c2ccccc2)C=C(c2ccccc2)[P+]1(c1ccccc1)c1ccccc1
inactive: dose: 11.0 mg/kg/injection, schedule: Q04DX003 (ip), vehicle: saline 115 % of control | dose: 12.5 mg/kg/injection, schedule: Q04DX003 (ip), vehicle: saline 123 % of control | dose: 17.0 mg/kg/injection, schedule: Q04DX003 (ip), vehicle: saline 123 % of control | dose: 37.0 mg/kg/injection, schedule: Q04DX003 (ip), vehicle: saline 100 % of control | dose: 50.0 mg/kg/injection, schedule: Q04DX003 (ip), vehicle: saline 119 % of control

Cc1c(O)c2c(c(O)c1Cc1ccc(CN)cc1)C(=O)c1ccccc1C2=O
inactive: dose: 12.5 mg/kg/injection, schedule: Q01DX009 (ip), vehicle: water 90 % of control | dose: 25.0 mg/kg/injection, schedule: Q01DX009 (ip), vehicle: water 114 % of control

CC(=O)OC1C2(CC3N4C(=O)C5(CO)SSC4(CC31O)C(=O)N5C)OC(C)C(C)(C)C2=O (configuration not stated)
inactive: dose: 3.13 mg/kg/injection, schedule: Q01DX009 (oral), vehicle: saline 95 % of control | dose: 6.25 mg/kg/injection, schedule: Q01DX009 (oral), vehicle: saline 100 % of control | dose: 12.5 mg/kg/injection, schedule: Q01DX009 (oral), vehicle: saline 103 % of control

O=C(/C=C/c1ccccc1)c1ccc2c(c1)OCO2
inactive: dose: 50.0 mg/kg/injection, schedule: Q01DX009 (ip), vehicle: water 99 % of control | dose: 50.0 mg/kg/injection, schedule: Q04DX003 (ip), vehicle: water 99 % of control | dose: 100.0 mg/kg/injection, schedule: Q01DX009 (ip), vehicle: water 108 % of control | dose: 100.0 mg/kg/injection, schedule: Q04DX003 (ip), vehicle: water 94 % of control | dose: 200.0 mg/kg/injection, schedule: Q01DX009 (ip), vehicle: water 101 % of control | dose: 200.0 mg/kg/injection, schedule: Q04DX003 (ip), vehicle: water 103 % of control | dose: 400.0 mg/kg/injection, schedule: Q01DX009 (ip), vehicle: water 108 % of control | dose: 400.0 mg/kg/injection, schedule: Q04DX003 (ip), vehicle: water 94 % of control

c1ccc2c3c(ccc2c1)Sc1ccc2ccccc2c1N3
inactive: [4] 90 % of control | [1] 104 % of control | [5] 90 % of control | [2] 90 % of control | [6] 90 % of control | [3] 90 % of control

O=C(NC(C(=O)O)C(O)c1cn(C(=O)OCc2ccccc2)cn1)OCc1ccccc1 (configuration not stated)
inactive: [7] 113 % of control | [4] 110 % of control | [5] 98 % of control

O=C(O)CCI
inactive: [8] 113 % of control | dose: 50.0 mg/kg/injection, schedule: Q01DX009 (ip), vehicle: saline 100 % of control | [9] 100 % of control | dose: 100.0 mg/kg/injection, schedule: Q01DX001 (ip), vehicle: saline 104 % of control | dose: 100.0 mg/kg/injection, schedule: Q01DX009 (ip), vehicle: saline 100 % of control | [1] 92 % of control and 95 % of control | dose: 200.0 mg/kg/injection, schedule: Q01DX001 (ip), vehicle: saline 104 % of control | dose: 200.0 mg/kg/injection, schedule: Q01DX009 (ip), vehicle: saline 91 % of control

CCOC(=O)C/C(C)=N/NC(=O)CC(=O)N/N=C(\C)CC(=O)OCC
inactive: dose: 75.0 mg/kg/injection, schedule: Q01DX009 (ip), vehicle: saline 109 % of control | dose: 150.0 mg/kg/injection, schedule: Q01DX009 (ip), vehicle: saline 105 % of control | dose: 300.0 mg/kg/injection, schedule: Q01DX009 (ip), vehicle: saline 103 % of control

N=Cc1c(O)n(-c2ccccc2)c(=O)n(-c2ccccc2)c1=O
inactive: [4] 95 % of control | [5] 95 % of control | [6] 90 % of control

CC(=O)OCc1cc(=O)n(C)c2c3c4c(cc12)c(C)cc(=O)n4CO3
inactive: dose: 100.0 mg/kg/injection, schedule: Q01DX001 (ip), vehicle: Klucel (hydroxypropylcellulose) (HPC) 120 % of control

CC(=O)O.O=CCO.[C-]#[O+].[C-]#[O+].[C-]#[O+].[C-]#[O+].[Rh].[Rh]
inactive: dose: 25.0 mg/kg/injection, schedule: Q01DX009 (ip), vehicle: Klucel (hydroxypropylcellulose) (HPC) 119 % of control | [10] 122 % of control

COc1ccc2c(c1OC(C)=O)-c1cc(OC(C)=O)cc3c1C(C2)N(C(=O)CBr)CC3 (configuration not stated)
inactive: dose: 6.25 mg/kg/injection, schedule: Q01DX009 (ip), vehicle: saline with Tween-80 105 % of control | dose: 12.5 mg/kg/injection, schedule: Q01DX009 (ip), vehicle: saline with Tween-80 106 % of control | [11] 116 % of control | [7] 88 % of control and 114 % of control

O=C(CC(NC(=O)OCc1ccccc1)C(=O)O)OCc1ccccc1 (configuration not stated)
inactive: [10] 122 % of control | dose: 100.0 mg/kg/injection, schedule: Q01DX009 (ip), vehicle: Klucel (hydroxypropylcellulose) (HPC) 111 % of control | [1] 104 % of control | dose: 200.0 mg/kg/injection, schedule: Q01DX009 (ip), vehicle: Klucel (hydroxypropylcellulose) (HPC) 111 % of control | [2] 100 % of control | dose: 264.0 mg/kg/injection, schedule: Q04DX003 (ip), vehicle: saline with Tween-80 100 % of control | dose: 400.0 mg/kg/injection, schedule: Q01DX009 (ip), vehicle: Klucel (hydroxypropylcellulose) (HPC) 94 % of control | [3] 100 % of control and 109 % of control

COC(=O)/C(N=Nc1cccc(C)c1)=C(\C)O
inactive: [7] 97 % of control | [4] 103 % of control

CC(/C=C/c1ccccc1)=N\O
inactive: dose: 100.0 mg/kg/injection, schedule: Q04DX003 (ip), vehicle: saline sonified 90 % of control | dose: 200.0 mg/kg/injection, schedule: Q04DX003 (ip), vehicle: saline sonified 90 % of control | dose: 400.0 mg/kg/injection, schedule: Q04DX003 (ip), vehicle: saline sonified 90 % of control

COC(=O)N1C=Cc2ccccc2C1C#N (configuration not stated)
inactive: dose: 25.0 mg/kg/injection, schedule: Q01DX001 (ip), vehicle: other 104 % of control | [11] 105 % of control | [8] 100 % of control | dose: 50.0 mg/kg/injection, schedule: Q01DX001 (ip), vehicle: other 90 % of control | [7] 110 % of control | [9] 104 % of control | dose: 100.0 mg/kg/injection, schedule: Q01DX001 (ip), vehicle: other 86 % of control | [4] 110 % of control | [1] 100 % of control
